This note sets out measurements from PubChem BioAssay (NCI).

Structures are written as SMILES.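 Each compound was tested at five concentrations against cells in 96-well plates for 48 hours. TGI marks complete inhibition of growth.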

Among the test systems are HS 578T breast; K-562 leukemia; MDA-MB-231 breast; NCI-H522 lung; UACC-257 melanoma; MDA-MB-435; NCI/ADR-RES ovarian; SW-620 colon; HCT-15 colon; A549 NSCLC; NCI-H23 lung; SN12C renal; MALME-3M melanoma; OVCAR-4 ovarian; IGROV1 ovarian; TK-10 renal; 786-0 renal; OVCAR-3 ovarian; SR leukemia.
Common to all, as to experiment: DTP human tumour cell line panel, 48 h

In general, TGI refers to the concentration giving total growth inhibition. High values mean less potent growth arrest, low ones more potent growth arrest. In the case of `CCCCCCCCCCCCCCCCCCNC(=O)C(N)Cc1ccc(OCc2ccccc2)cn1` (stereo not given), the TGI is 51.1 µM in the assay on HS 578T breast; 95.1 µM in the assay on K-562 leukemia; 38.3 µM in the assay on MDA-MB-231 breast; 38.5 µM in the assay on NCI-H522 lung; 43.7 µM in the assay on UACC-257 melanoma; 32.5 µM with MDA-MB-435. Moreover, the TGI in the assay with NCI/ADR-RES ovarian came to 38.4 µM; with SW-620 colon, 59.4 µM; with HCT-15 colon, 37.3 µM; in the assay on A549 NSCLC, 42.6 µM; with NCI-H23 lung, 31.7 µM; with SN12C renal it was 49.3 µM. Moreover, the TGI in the assay with MALME-3M melanoma came out at 42.9 µM; with OVCAR-4 ovarian, 34 µM; in the assay with IGROV1 ovarian, 32.6 µM; with TK-10 renal it was 28.8 µM; with 786-0 renal it was 41.6 µM; in the assay on OVCAR-3 ovarian, 49.6 µM.
For `O=C1CCCCC/C1=C\c1cccc(Cl)c1`, the concentration for total growth inhibition (TGI) was 94.3 µM in the assay on HS 578T breast; over 100 µM with MDA-MB-231 breast; over 100 µM in the assay with NCI-H522 lung; over 100 µM in the assay on UACC-257 melanoma; 94.4 µM in the assay with MDA-MB-435; 60.1 µM with SW-620 colon. For the same molecule, the TGI in the assay on HCT-15 colon was over 100 µM; with A549 NSCLC it was over 100 µM; with NCI-H23 lung it was over 100 µM; in the assay with SN12C renal it was over 100 µM; in the assay with MALME-3M melanoma, over 100 µM; in the assay with OVCAR-4 ovarian, 83.3 µM. For the same molecule, the total growth inhibition concentration (TGI) with IGROV1 ovarian, in the assay on 786-0 renal, in the assay with OVCAR-3 ovarian and with SR leukemia was over 100 µM in each case.
On to `Cc1csc2[n+]1C(=O)/C(=C\c1ccc([N+](=O)[O-])cc1)S2`, for which the TGI with HS 578T breast is 74.3 µM; with K-562 leukemia, over 100 µM; with MDA-MB-231 breast it was 68.6 µM; with UACC-257 melanoma, over 100 µM; with MDA-MB-435, 59.9 µM; in the assay on NCI/ADR-RES ovarian, 63.6 µM. Moreover, the TGI in the assay with SW-620 colon is over 100 µM; with A549 NSCLC it was over 100 µM; with NCI-H23 lung, 48.6 µM; with SN12C renal, 99.3 µM; in the assay with OVCAR-4 ovarian it was over 100 µM; in the assay with TK-10 renal, 58.8 µM. The TGI in the assay with 786-0 renal was 71.8 µM; in the assay with OVCAR-3 ovarian it was 33.1 µM; in the assay with SR leukemia it was over 100 µM.
`CS(=O)(=O)c1nc(-c2cc3c(c(S(C)(=O)=O)n2)CCC3)cc2c1CCCCC2`: the TGI is 40 µM in the assay with HS 578T breast; over 100 µM with K-562 leukemia; over 100 µM in the assay on MDA-MB-231 breast; 58.9 µM in the assay on NCI-H522 lung; over 100 µM with UACC-257 melanoma; over 100 µM in the assay with MDA-MB-435. Further, the TGI in the assay on NCI/ADR-RES ovarian, in the assay with SW-620 colon, in the assay with HCT-15 colon, in the assay with A549 NSCLC, with NCI-H23 lung and with SN12C renal was over 100 µM throughout. The concentration for total growth inhibition (TGI) in the assay on MALME-3M melanoma is 99.6 µM; in the assay on OVCAR-4 ovarian it was over 100 µM; with IGROV1 ovarian, 63.7 µM; in the assay with TK-10 renal, over 100 µM; with 786-0 renal, over 100 µM; in the assay with OVCAR-3 ovarian it was over 100 µM.
Turning to `C=C(C)C1=CCC[C@]2(C1)N=C(OC)[C@@H](C(C)C)N=C2OC`, the TGI in the assay on HS 578T breast, with MDA-MB-231 breast, in the assay with NCI-H522 lung, with UACC-257 melanoma, with MDA-MB-435 and with NCI/ADR-RES ovarian was over 100 µM each time. For the same molecule, the concentration for total growth inhibition (TGI) in the assay with SW-620 colon, in the assay with HCT-15 colon, in the assay on A549 NSCLC, in the assay with NCI-H23 lung, in the assay on SN12C renal and in the assay with MALME-3M melanoma was over 100 µM throughout. Moreover, the TGI in the assay with OVCAR-4 ovarian, in the assay with IGROV1 ovarian, with TK-10 renal, in the assay with 786-0 renal and in the assay with OVCAR-3 ovarian was over 100 µM in each case.
Regarding `Cc1cc(=O)[nH]c(-n2[nH]c(C)c(CCO)c2=O)n1`, the TGI in the assay on HS 578T breast, in the assay on K-562 leukemia, with MDA-MB-231 breast, with NCI-H522 lung, with UACC-257 melanoma and in the assay on MDA-MB-435 was over 100 µM throughout. For the same molecule, the TGI in the assay with NCI/ADR-RES ovarian, in the assay on SW-620 colon, in the assay on HCT-15 colon, in the assay on A549 NSCLC, with NCI-H23 lung and in the assay on SN12C renal was over 100 µM in each case. For the same molecule, the TGI in the assay with MALME-3M melanoma, in the assay on OVCAR-4 ovarian, in the assay with IGROV1 ovarian, in the assay with TK-10 renal, in the assay with 786-0 renal and with OVCAR-3 ovarian was over 100 µM in each case.
For `O=C1/C(=C\c2ccc(O)cc2)CCC/C1=C/c1ccc(Cl)c(Cl)c1`, the TGI with HS 578T breast amounted to 21.5 µM; in the assay with K-562 leukemia, 11.9 µM; with MDA-MB-231 breast, 7.55 µM; in the assay with UACC-257 melanoma, 15.7 µM; in the assay on MDA-MB-435 it was 9.51 µM; in the assay on NCI/ADR-RES ovarian, 4.27 µM. Moreover, the TGI with SW-620 colon worked out at 12 µM; with HCT-15 colon, 9.75 µM; in the assay on A549 NSCLC it was 15 µM; in the assay on NCI-H23 lung, 10.1 µM; in the assay with SN12C renal it was 10.4 µM; in the assay on MALME-3M melanoma it was 17.5 µM. The TGI was 5.93 µM in the assay on OVCAR-4 ovarian; 1.17 µM in the assay on IGROV1 ovarian; 10.5 µM with TK-10 renal; 6.05 µM with 786-0 renal; 9.73 µM with OVCAR-3 ovarian.
As for `CC(C)OC(=O)c1ccc(NCc2cc(O)ccc2O)cc1Cl`, the TGI with HS 578T breast is over 100 µM; in the assay on MDA-MB-231 breast it was over 54 µM; in the assay on UACC-257 melanoma, 37.1 µM; in the assay on MDA-MB-435 it was 23.3 µM; in the assay on NCI/ADR-RES ovarian, over 100 µM; with SW-620 colon, over 62.5 µM. Besides, the TGI with HCT-15 colon was 3.95 µM; in the assay on A549 NSCLC, over 76.7 µM; with NCI-H23 lung it was 28.6 µM; in the assay on SN12C renal it was 32.2 µM; in the assay on OVCAR-4 ovarian, 21.9 µM; in the assay on IGROV1 ovarian, 14.7 µM. Moreover, the TGI in the assay with TK-10 renal is 20.2 µM; with 786-0 renal, 10.8 µM; in the assay with OVCAR-3 ovarian it was over 42.2 µM; in the assay with SR leukemia it was 8.6 µM.
